Measured values from patent US20230144898A1, “INHIBITOR OF ASPARTIC ACID SYNTHESIS IN TUMOR CELLS, INHIBITOR OF SPHEROID FORMATION OF TUMOR CELLS, INHIBITOR OF TUMOR CELL METASTASIS, ACTIVITY ENHANCER OF GLYCOLYTIC INHIBITOR, AND PHARMACEUTICAL COMPOSITION FOR SUPPRESSING AND/OR PREVENTING TUMOR METASTASIS” (CCI HOLDINGS INC., priority 2020, published 2023).
Entries after “also recorded” stand apart in the source; their conditions may differ. Read-outs that look alike come from different tables or passages of the source.

Tests used:
[1] = test system: mitochondrial respiratory chain Complex I; experiment: MitoCheck Complex Activity Assay (Test Example 9); type: biochemical; details: II, II/III, IV and V tested
Protocol: Specifically, using the MitoCheck Complex Activity Assay Kit (Cayman Chemical Company, Ann Arbor, MI, USA), extent of relative activity of each of Complex I, Complex II, Complex II/III, Complex IV and Complex V constituting the mitochondrial respiratory chain that was reduced by neopetasin treatment was examined. Furthermore, as a negative control section, DMSO was administered to perform the same experiment. In addition, as a positive control section, rotenone (Complex I), TTFA (Complex II), antimycin A (Complexes II/III), KCN (Complex IV), and oligomycin (Complex V) were each administered, and the same experiment was conducted.

[2] = test system: mouse-derived metastatic breast cancer cells Jyg-MC(B); experiment: Mouse natural metastasis model (Test Example 12); type: in vivo
Source text: In general, the metastasis process follows the course of primary tumor formation, invasion of blood vessels and lymphatic vessels, and fixation and proliferation to lung. Here, the model prepared in Test Example 2 verifies only kinetics of tumor cells after entry into the blood vessel, and the metastasis phenomenon occurring in the actual clinical example also includes other processes in addition to invasion of blood vessels and lymphatic vessels from the primary tumor. Thereupon, in this test example, a subcutaneous tumor (a primary tumor) was generated in a mouse, and a model in which the tumor cells metastasized to lung following all metastasis processes (a natural metastasis model) was prepared.
Specifically, to start with, in order to prepare a natural metastasis model, a nude mouse (BALBc nu/nu, female, 4 weeks old, purchased from Japan SLC) was subcutaneously inoculated with mouse-derived metastatic breast cancer cells Jyg-MC(B). After 24 days of incubation, neopetasin (NP) was administered intraperitoneally at a dose of 50 mg/kg and treated a total of 6 times for 16 days (inoculation at 0, 2, 4, 6, 10, 14 days, respectively). Note that treatment procedure at this time is illustrated in FIG. 13.

[3] = test system: ASF4-1 cells (normal human skin-derived fibroblasts); experiment: Proliferation inhibition, normal fibroblasts compared with tumor cells (Test Example 1); type: cell-based
Protocol: (§1) First, CMeCl cells (canine malignant melanoma cells) were seeded in a six-well plate so as to be 0.5×10^5 cells/mL, and after 24 hours therefrom, each of the above four kinds of compounds (final concentration: 0.01 to 100 µg/mL) was suspended in the medium at a ratio of 0.1% and incubated for 72 hours. 72 hours after the start of culture, the number of viable cells was measured by trypan blue staining. At this time, viable cells (cell viability%) were calculated as the relative number of cells when the number of viable cells in a negative control section (DMSO treatment) was taken as 100%. Then, IC50 was calculated using a GraphPad Prism software system (GraphPad Software Inc.).
Furthermore, the results of the same test as described above using ASF4-1 cells, which are normal human skin-derived fibroblasts, and A2058 cells, which are human malignant melanoma cells, are shown in FIG. 1C in comparison with the case of using B16F10 cells.

[4] = test system: KMeC cells (canine malignant melanoma cells); experiment: Western blotting of cancer-related proteins, KMeC cells (Test Example 10); type: cell-based; details: 3 µM, 56 hours
Protocol: KMeC cells (canine malignant melanoma cells) were obtained from the Veterinary Surgery Laboratory, Graduate School of Agricultural and Life Sciences, the University of Tokyo. KMeC cells were cultured in an incubator (air/CO2 = 95/5 (v/v)) at 37° C. using RPMI1640 medium.
To start with, each cell was seeded at 0.5×10^5 cells/mL in a six-well plate, and after 24 hours of seeding, neopetasin (final concentration: 3 µM) was suspended in a medium and incubated for 56 hours. […] thus treated with neopetasin (3 µM) for 56 hours were recovered with a cell scraper. Furthermore, DMSO was administered to the negative control section, and the same experiment was performed.
Next, the cells were homogenized in ice-cold lysis buffer (10 mM Tris-HCl (pH 7.4), 1% (w/v) NP-40, 0.1% (w/v) deoxycholic acid, 0.1% (w/v) SDS, 150 mM NaCl, 1 mM EDTA, and 1% (w/v) protease inhibitor cocktail (Sigma-Aldrich) and allowed to stand on ice for 20 minutes. The homogenate was centrifuged at 13,000 rpm for 20 minutes (4° C.), and then the supernatant was collected as a sample for Western blotting. The protein content in the sample was measured using a DC protein assay kit (manufactured by Bio-Rad Laboratories, Inc.). A sample (protein amount of 5 µg) was separated by SDS-PAGE using 10.0 or 12.5% (w/v) polyacrylamide gel, and transferred to a PVDF membrane (PerkinElmer Life Science Co., Ltd). […]

[5] = test system: CMeCl cells (canine malignant melanoma cells); experiment: Proliferation inhibition, CMeC1 cells, trypan blue viable cell count (Test Example 1); type: cell-based; details: for IC50: Cell line: CMeC1, incubated for 72 hours
Protocol: Four compounds of petasin, S-petasin, neopetasin and neo-S-petasin were evaluated for the inhibitory effect on proliferation of mouse or canine malignant melanoma cells by the following method.
B16F10 cells (mouse malignant melanoma cells) were obtained from JCRB Cell Bank (National Institutes of Biomedical Innovation, Health and Nutrition). In addition, CMeCl cells (canine malignant melanoma cells) were obtained from Veterinary Surgery Laboratory, Graduate School of Agricultural and Life Sciences, the University of Tokyo. Furthermore, A2058 cells (human malignant melanoma cells) were obtained from JCRB Cell Bank (National Institutes of Biomedical Innovation, Health and Nutrition). B16F10 cells were cultured in a 37° C. incubator (air/CO2 = 95/5 (v/v)) using Dulbecco’s modified Eagle’s medium (DMEM), CMeCl cells in RPMI (Roswell Park Memorial Institute) medium (RPMI1640), and A2058 cells in E-MEM medium.
as §1

A2058 cells = experiment: Western blotting of cancer-related proteins, A2058 cells (Test Example 10); type: cell-based, human; details: 3 µM, 56 hours
[6] = 50 mg/kg intraperitoneally, 6 times for 16 days

With `C=C(C)[C@H]1C[C@@]2(C)C(=CC1=O)CC[C@@H](OC(=O)/C(C)=C\C)[C@@H]2C` [Neopetasin, neopetasin] the “relative activity of mitochondrial respiratory chain complexes” value [1] was “selectively reduced only the relative activity of the mitochondrial respiratory chain Complex I”, the lung metastasis lesions [2, 6] was “significant decrease in lung metastasis lesions” and the “lymph node metastasis (weight of the axillary lymph node)” value [2, 6] was “exhibits an inhibitory effect on lymph node metastasis”. For the same molecule, the “degree and weight of lymph node swelling” value ([2]; excluding examples without lymph node swelling) was “decreased”, the “inhibitory effect on proliferation of / cytotoxicity to normal cells” value ([3]; ASF4-1 cells) was “hardly exhibits the inhibitory effect on proliferation of normal cells; also recorded: shows no cytotoxicity” and the “IC50 for ASF4-1 cells (normal cells) relative to IC50 for tumor cells” value ([3]; versus A2058 cells and B16F10 cells) was ≥ 1000 fold. For the same molecule, the “expression of cancer-related molecules” value [4] was “inhibit a wide range of cancer-related molecules”, the “inhibitory effect on proliferation of CMeCl cells” value ([5]; 72 hours) was “showed the strongest activity” and the IC50 ([5]; Canis lupus familiaris, 72 h, read-out: IC50) was 990 nM. The IC50 ([5]; Canis lupus familiaris, 72 h, read-out: IC50 (µg/mL)) was 0.314 µg/mL, the IC50 ([5]; read-out: IC50) was 991 nM and the “expression of cancer-related molecules” value (A2058 cells) was “inhibit a wide range of cancer-related molecules”.
